Test results from paper PMC8253220, “Molecular design, synthesis and in vitro biological evaluation of thienopyrimidine–hydroxamic acids as chimeric kinase HDAC inhibitors: a challenging approach to combat cancer” (Journal of Enzyme Inhibition and Medicinal Chemistry, 2021).
“And” between values parts separate entries of the source, which are not always exact repeats. Identical values can stand only once.

Tests used:
EGFR = EGFR (Homo sapiens, UniProt P00533); assay: In vitro EGFR tyrosine kinase inhibitory assay (Z'-LYTE, SelectScreen); assay type: biochemical; conditions: 10 µM single dose
Chain of EGFR (P00533 25-1210): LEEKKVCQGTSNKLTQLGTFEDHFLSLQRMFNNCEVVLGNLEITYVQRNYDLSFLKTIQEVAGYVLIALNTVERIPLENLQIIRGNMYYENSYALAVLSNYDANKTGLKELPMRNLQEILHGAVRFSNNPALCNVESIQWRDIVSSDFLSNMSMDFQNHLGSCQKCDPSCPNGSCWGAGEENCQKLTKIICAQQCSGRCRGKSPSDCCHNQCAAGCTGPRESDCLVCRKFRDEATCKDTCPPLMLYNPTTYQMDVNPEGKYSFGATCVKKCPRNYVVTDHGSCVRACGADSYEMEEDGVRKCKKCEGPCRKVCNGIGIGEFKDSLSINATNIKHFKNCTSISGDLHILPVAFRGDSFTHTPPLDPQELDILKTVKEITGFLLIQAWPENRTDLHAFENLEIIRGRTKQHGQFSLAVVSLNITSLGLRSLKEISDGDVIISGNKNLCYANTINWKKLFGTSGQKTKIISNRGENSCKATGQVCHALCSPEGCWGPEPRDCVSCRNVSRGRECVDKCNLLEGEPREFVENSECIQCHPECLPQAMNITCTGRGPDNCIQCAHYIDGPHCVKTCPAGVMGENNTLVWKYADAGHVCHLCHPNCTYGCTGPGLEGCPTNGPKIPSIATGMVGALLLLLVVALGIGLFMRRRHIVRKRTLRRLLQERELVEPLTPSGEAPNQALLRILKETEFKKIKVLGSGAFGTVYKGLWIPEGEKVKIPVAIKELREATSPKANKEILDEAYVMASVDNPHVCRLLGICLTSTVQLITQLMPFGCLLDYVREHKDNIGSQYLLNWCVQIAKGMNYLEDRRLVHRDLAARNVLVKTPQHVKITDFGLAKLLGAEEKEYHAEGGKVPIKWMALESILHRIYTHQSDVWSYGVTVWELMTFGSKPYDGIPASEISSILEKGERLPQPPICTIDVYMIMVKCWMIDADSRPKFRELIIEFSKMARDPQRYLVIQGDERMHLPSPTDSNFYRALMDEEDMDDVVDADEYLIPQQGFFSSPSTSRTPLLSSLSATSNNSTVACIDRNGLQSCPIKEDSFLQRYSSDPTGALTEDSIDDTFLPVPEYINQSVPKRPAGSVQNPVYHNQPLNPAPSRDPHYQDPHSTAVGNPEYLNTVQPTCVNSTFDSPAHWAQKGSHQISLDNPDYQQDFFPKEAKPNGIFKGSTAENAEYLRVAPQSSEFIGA
Procedure: The target compounds were evaluated for their in vitro inhibitory activities against EGFR, VEGFR-2, and HDAC6. The EGFR and VEGFR-2 inhibitory assays were performed at Thermo Fischer Scientific, Madison, WI, USA (SelectScreenServices@thermofisher.com). The HDAC inhibitory assays were performed at BPS Bioscience, San Diego, CA, USA (www.bpsbioscience.com). Initially, all of the synthesised target compounds were evaluated for their percent inhibitory activity against EGFR, VEGFR-2, and HDACs at 10 µM single dose concentration, in which their mean percent inhibition is summarised in (Figure 5, Tables 1 and [2]). Representative compounds were evaluated for their percent inhibitory activity against EGFR and VEGFR-2 at 6 different concentrations (0.1 nM, 1 nM, 10 nM, 100 nM, 1 µM, 10 µM) to subsequently calculate their IC50 values (Table 3). Additionally, all of the synthesised target compounds were submitted to the National Cancer Institute “NCI” Bethesda, Maryland, USA (www.dtp.nci.nih.gov), to evaluate theirs in vitro antiproliferative activities against NCI 60- cancer cell line panel.
In vitro enzyme inhibition determination for the synthesised compounds was carried out in Thermo Fischer Scientific, Madison, WI, USA (SelectScreenServices@thermofisher.com). The EGFR and VEGFR-2 tyrosine kinase % inhibitory activity at a single-dose concentration of 10 µM was performed initially then representative compounds were evaluated at single-dose concentrations of (0.1 nM, 1 nM, 10 nM, 100 nM, 1 µM) using ZYLTE technology. A fluorescence-based, coupled-enzyme format is employed in the biochemical assay and depends on the sensitivity of proteolytic cleavage to non-phosphorylated and phosphorylated peptides. Then IC50 values for selected compounds were determined by GraphPad Prism at Misr international university.

Hela nuclear extracts = assay: Hela nuclear extract HDAC inhibitor assay (BPS Bioscience); assay type: biochemical; conditions: 10 µM
Procedure: The purpose of the study is to determine the effects of twenty compounds from Misr International University on the enzymatic activities of hela nuclear extracts using an in vitro […]
7a Solution 10mM DMSO 10 10 % DMSO in
7b Solution 10mM DMSO 10 10 % DMSO in
7d Solution 10mM DMSO 10 10 % DMSO in
2.3 Experimental Conditions
2.3.1 Enzymes and Substrates
Assay Catalog # Substrate
Hela Nuclear Exctract 50053 10 µM HDAC Substrate 3
For the hela nuclear extracts, hela cells were grown to 90 % confluency. Hela nuclear extracts were prepared from the Nuclear Extraction Kit from abcam (Catalog # ab113474). The final total protein concentration was calculated to be 2.4 µg/µl. From this, the hela nuclear extracts was diluted 20-fold in HDAC assay buffer and 5 µl of the dilution was added to a 50 µl reaction.
The compounds are dissolved in DMSO. A series of dilutions of the compounds were prepared with 10% DMSO in HDAC assay buffer and 5 µl of the dilution was added to a 50 µl reaction so that the final concentration of DMSO is 1 % in all of […]
The enzymatic reactions for the hela nuclear extract were conducted in duplicate at 37 °C for 60 minutes in a 50 µl mixture containing HDAC assay buffer, 5 µg BSA, an HDAC substrate (see 2.3.1), hela nuclear extract, and a test compound (see 2.2).
After enzymatic reactions, 50μl of 2 x HDAC Developer was added to each well for the hela nuclear extract and the plate was incubated at room temperature for an additional 15 […]
Fluorescence intensity was measured at an excitation of 360 nm and an emission of 460 nm using a Tecan Infinite M1000 microplate reader.
Hela nuclear extract activity assays were performed in duplicates at each concentration.
The fluorescent intensity data were analyzed using the computer software, Graphpad Prism. In the absence of the compound, the fluorescent intensity (Ft) in each data set was defined as 100% activity. In the absence of hela nuclear extract, the fluorescent intensity (Fb) in each data set was defined as 0% activity. The percent activity in the presence of each compound was calculated according to the following equation: %activity = (F-Fb)/(Ft-Fb), where F= the fluorescent intensity in the presence of the compound.
The values of percentage activity were plotted on a bar graph.

786-0 = assay: NCI one-dose screen; assay type: cell-based, human; conditions: Renal 786-0, 10 µM single dose
Procedure: (§1) All of the synthesised structures were selected and submitted to NCI based on computer modelling techniques and the degree of diversity of structures for the evaluation of their antiproliferative activity. The 20 synthesised compounds were selected with their respective NCI codes [NCS D-820157- NCS D-820176] for the inhibition percent assay at an initial single dose of 10 μM on the full NCI 60 cell panel, where the mean graph of the percent growth for all compounds on the full NCI cell panel is evaluated, compared to the untreated control cells (Supplementary Material). In vitro cell line inhibition % of all synthesised compounds is represented in (Table 1 of Supplementary Material).
(§2) All of the synthesised compounds (20) were submitted to NCI and selected for in vitro anticancer assay against a panel of 60 cancer cell lines. The methodology of assay and calculations is as reported.

CCRF-CEM = assay: NCI one-dose screen; assay type: cell-based, human; conditions: Leukemia CCRF-CEM, 10 µM single dose
Procedure: as §1, §2

EKVX = assay: NCI one-dose screen; assay type: cell-based, human; conditions: NSCLC EKVX, 10 µM single dose
Procedure: as §1, §2

HCT-15 = assay: NCI one-dose screen; assay type: cell-based, human; conditions: Colon HCT-15, 10 µM single dose
Procedure: as §1, §2

M14 = assay: NCI one-dose screen; assay type: cell-based, human; conditions: Melanoma M14, 10 µM single dose
Procedure: as §1, §2

NCI/ADR-RES = assay: NCI one-dose screen; assay type: cell-based, human; conditions: Ovarian NCI/ADR-RES, 10 µM single dose
Procedure: as §1, §2

OVCAR-4 = assay: NCI one-dose screen; assay type: cell-based, human; conditions: Ovarian OVCAR-4, 10 µM single dose
Procedure: as §1, §2

SK-MEL-5 = assay: NCI one-dose screen; assay type: cell-based, human; conditions: Melanoma SK-MEL-5, 10 µM single dose
Procedure: as §1, §2

TK-10 = assay: NCI one-dose screen; assay type: cell-based, human; conditions: Renal TK-10, 10 µM single dose
Procedure: as §1, §2

UACC-62 = assay: NCI one-dose screen; assay type: cell-based, human; conditions: Melanoma UACC-62, 10 µM single dose
Procedure: as §1, §2

full NCI 60 cell panel = assay: NCI one-dose screen, whole panel statistics; assay type: cell-based, human; conditions: 1.00E-5 Molar; for Mean Growth Percent: mean over panel
Procedure: as §1, §2

Cc1c(C(=O)NO)sc2ncnc(Nc3ccc(NC(=O)Nc4ccccc4)cc3)c12 [Compound 7a, 1–(4-(6-(hydroxycarbamoyl)-5-methylthieno[2,3-d]pyrimidin-4-ylamino)phenyl)-3-phenylurea]
inhibition at 10 µM (EGFR): 48%
% Inhibition Hela Nuclear Extracts (Hela nuclear extracts): 2%
Growth Percent (786-0): 95.9% and 95.93%
Growth Percent (CCRF-CEM): 97.4% and 97.44%
Growth Percent (EKVX): 88.9% and 88.95%
Growth Percent (HCT-15): 99.1% and 99.16%
Growth Percent (M14): 95.1% and 95.18%
Growth Percent (NCI/ADR-RES): 102.1% and 102.16%
Growth Percent (OVCAR-4): 94.1% and 94.11%
Growth Percent (SK-MEL-5): 101.0% and 101.07%
Growth Percent (TK-10): 108.5% and 108.59%
Growth Percent (UACC-62): 101.7% and 101.73%
Delta (one dose mean graph) (full NCI 60 cell panel): 24.69%
Range (one dose mean graph) (full NCI 60 cell panel): 48.09%
Mean Growth Percent (full NCI 60 cell panel): 99.34%
melting point: > 200 °C

COc1cccc(NC(=O)Nc2ccc(Nc3ncnc4sc(C(=O)NO)c(C)c34)cc2)c1 [Compound 7b, 1–(4-(6-(hydroxycarbamoyl)-5-methylthieno[2,3-d]pyrimidin-4-ylamino)phenyl)-3–(3-methoxyphenyl)urea]
inhibition at 10 µM (EGFR): 39%
% Inhibition Hela Nuclear Extracts (Hela nuclear extracts): 2%
Growth Percent (786-0): 100.6% and 100.62%
Growth Percent (CCRF-CEM): 101.2% and 101.22%
Growth Percent (EKVX): 92.8% and 92.81%
Growth Percent (HCT-15): 99.0% and 99.07%
Growth Percent (M14): 101.0% and 101.01%
Growth Percent (NCI/ADR-RES): 97.6% and 97.67%
Growth Percent (OVCAR-4): 101.8% and 101.82%
Growth Percent (SK-MEL-5): 99.5%
Growth Percent (TK-10): 103.9% and 103.96%
Growth Percent (UACC-62): 96.7% and 96.74%
Delta (one dose mean graph) (full NCI 60 cell panel): 18.14%
Range (one dose mean graph) (full NCI 60 cell panel): 45.12%
Mean Growth Percent (full NCI 60 cell panel): 101.61%
melting point: > 200 °C

Cc1c(C(=O)NO)sc2ncnc(Nc3ccc(NC(=O)Nc4cccc(C(F)(F)F)c4)cc3)c12 [Compound 7c, 1–(4-(6-(hydroxycarbamoyl)-5-methylthieno[2,3-d]pyrimidin-4-ylamino)phenyl)-3–(3-(trifluoromethyl)phenyl)urea]
inhibition at 10 µM (EGFR): 11%
% Inhibition Hela Nuclear Extracts (Hela nuclear extracts): 3%
Growth Percent (786-0): 108.4% and 108.43%
Growth Percent (CCRF-CEM): 101.6%
Growth Percent (EKVX): 95.7% and 95.77%
Growth Percent (HCT-15): 97.7% and 97.77%
Growth Percent (M14): 102.4% and 102.43%
Growth Percent (NCI/ADR-RES): 97.6% and 97.66%
Growth Percent (OVCAR-4): 103.4% and 103.45%
Growth Percent (SK-MEL-5): 99.6% and 99.67%
Growth Percent (TK-10): 116.24%
Growth Percent (UACC-62): 96.4%
Delta (one dose mean graph) (full NCI 60 cell panel): 43.18%
Range (one dose mean graph) (full NCI 60 cell panel): 65.35%
Mean Growth Percent (full NCI 60 cell panel): 97.22%
melting point: 285 °C

Cc1c(C(=O)NO)sc2ncnc(Nc3ccc(NC(=S)Nc4ccccc4)cc3)c12 [Compound 7d, 1–(4-(6-(hydroxycarbamoyl)-5-methylthieno[2,3-d]pyrimidin-4-ylamino)phenyl)-3-phenylthiourea]
inhibition at 10 µM (EGFR): 78%
% Inhibition Hela Nuclear Extracts (Hela nuclear extracts): 3%
Growth Percent (786-0): 99.1% and 99.11%
Growth Percent (EKVX): 93.6% and 93.61%
Growth Percent (HCT-15): 95.3% and 95.39%
Growth Percent (M14): 104.3%
Growth Percent (NCI/ADR-RES): 99.5% and 99.55%
Growth Percent (OVCAR-4): 104.6% and 104.62%
Growth Percent (SK-MEL-5): 101.2% and 101.24%
Growth Percent (TK-10): 106.3% and 106.37%
Growth Percent (UACC-62): 94.9% and 94.97%
Delta (one dose mean graph) (full NCI 60 cell panel): 17.28%
Range (one dose mean graph) (full NCI 60 cell panel): 35.68%
Mean Growth Percent (full NCI 60 cell panel): 102.34%
melting point: 300 °C

Cc1c(C(=O)NCCC(=O)NO)sc2ncnc(Nc3ccc(NC(=O)Nc4ccccc4)cc3)c12 [Compound 11a, 1–(4-(6-((3-(hydroxyamino)-3-oxopropyl)carbamoyl)-5-methylthieno[2,3-d]pyrimidin-4-ylamino)phenyl)-3-phenylurea]
inhibition at 10 µM (EGFR): 12%
% Inhibition Hela Nuclear Extracts (Hela nuclear extracts): 0%
Growth Percent (786-0): 98.2% and 98.21%
Growth Percent (CCRF-CEM): 106.8% and 106.84%
Growth Percent (EKVX): 94.6% and 94.62%
Growth Percent (HCT-15): 95.7% and 95.77%
Growth Percent (M14): 99.1% and 99.16%
Growth Percent (NCI/ADR-RES): 99.0% and 99.07%
Growth Percent (OVCAR-4): 101.4% and 101.41%
Growth Percent (SK-MEL-5): 99.1% and 99.18%
Growth Percent (TK-10): 97.6% and 97.69%
Growth Percent (UACC-62): 98.7% and 98.79%
Delta (one dose mean graph) (full NCI 60 cell panel): 21.26%
Range (one dose mean graph) (full NCI 60 cell panel): 44.07%
Mean Growth Percent (full NCI 60 cell panel): 100.98%
melting point: 225 °C

Cc1c(C(=O)NO)sc2ncnc(Nc3ccc(F)c(Cl)c3)c12 [Compound 15d, 4–(3-chloro-4-fluorophenylamino)-N-hydroxy-5-methylthieno[2,3-d]pyrimidine-6-carboxamide]
inhibition at 10 µM (EGFR): 97%
% Inhibition Hela Nuclear Extracts (Hela nuclear extracts): 4%
Growth Percent (786-0): 94.4% and 94.41%
Growth Percent (EKVX): 88.0% and 88.08%
Growth Percent (HCT-15): 96.0% and 96.09%
Growth Percent (M14): 110.2% and 110.24%
Growth Percent (NCI/ADR-RES): 99.6% and 99.61%
Growth Percent (OVCAR-4): 102.2% and 102.21%
Growth Percent (SK-MEL-5): 100.5% and 100.59%
Growth Percent (TK-10): 118.5% and 118.53%
Growth Percent (UACC-62): 88.5% and 88.53%
Delta (one dose mean graph) (full NCI 60 cell panel): 24.43%
Range (one dose mean graph) (full NCI 60 cell panel): 43.45%
Mean Growth Percent (full NCI 60 cell panel): 101.50%
melting point: 320 °C
